Measured values from patent US20230295109A1, “PYRIDINONE COMPOUNDS FOR THE TREATMENT OF AUTOIMMUNE DISEASE” (F. Hoffmann-La Roche AG, priority 2020, published 2023).

How the values were obtained:
[1] = Human microsome stability assay; type: in vitro ADME; settings: 1 µM test compound, 0.5 mg/mL liver microsomal protein, 37° C., pH 7.4
Description: The human microsomal stability assay is used for early assessment of metabolic stability of a test compound in human liver microsomes.
Human liver microsomes (Cat.NO.: 452117, Corning, USA;Cat.NO.:H2610, Xenotech, USA) were preincubated with test compound for 10 minutes at 37° C. in 100 mM potassium phosphate buffer, pH 7.4. The reactions were initiated by adding NADPH regenerating system. The final incubation mixtures contained 1 µM test compound, 0.5 mg/mL liver microsomal protein, 1 mM MgCl2, 1 mM NADP, 1 unit/mL isocitric dehydrogenase and 6 mM isocitric acid in 100 mM potassium phosphate buffer, pH 7.4. After incubation times of 0, 3, 6, 9, 15 and 30 minutes at 37° C., 300 µL of cold acetonitrile (including internal standard) was added to 100 µL incubation mixture to terminate the reaction. Following precipitation and centrifugation, the amount of compound remaining in the samples were determined by LC-MS/MS. Controls of no NADPH regenerating system at zero and 30 minutes were also prepared and analyzed.

[2] = molecular target: T1, TLR9 (Homo sapiens, UniProt Q9NR96); assay: HEK293-Blue-hTLR-9 cells assay; type: cell-based; design: host or cells: HEK293 (HEK-Blue hTLR9); settings: HEK293-Blue-hTLR9 cells, ODN2006 stimulation, 20 hrs, SEAP reporter; read-out: HEK/hTLR9 IC50
T1 sequence (Q9NR96 26-1032): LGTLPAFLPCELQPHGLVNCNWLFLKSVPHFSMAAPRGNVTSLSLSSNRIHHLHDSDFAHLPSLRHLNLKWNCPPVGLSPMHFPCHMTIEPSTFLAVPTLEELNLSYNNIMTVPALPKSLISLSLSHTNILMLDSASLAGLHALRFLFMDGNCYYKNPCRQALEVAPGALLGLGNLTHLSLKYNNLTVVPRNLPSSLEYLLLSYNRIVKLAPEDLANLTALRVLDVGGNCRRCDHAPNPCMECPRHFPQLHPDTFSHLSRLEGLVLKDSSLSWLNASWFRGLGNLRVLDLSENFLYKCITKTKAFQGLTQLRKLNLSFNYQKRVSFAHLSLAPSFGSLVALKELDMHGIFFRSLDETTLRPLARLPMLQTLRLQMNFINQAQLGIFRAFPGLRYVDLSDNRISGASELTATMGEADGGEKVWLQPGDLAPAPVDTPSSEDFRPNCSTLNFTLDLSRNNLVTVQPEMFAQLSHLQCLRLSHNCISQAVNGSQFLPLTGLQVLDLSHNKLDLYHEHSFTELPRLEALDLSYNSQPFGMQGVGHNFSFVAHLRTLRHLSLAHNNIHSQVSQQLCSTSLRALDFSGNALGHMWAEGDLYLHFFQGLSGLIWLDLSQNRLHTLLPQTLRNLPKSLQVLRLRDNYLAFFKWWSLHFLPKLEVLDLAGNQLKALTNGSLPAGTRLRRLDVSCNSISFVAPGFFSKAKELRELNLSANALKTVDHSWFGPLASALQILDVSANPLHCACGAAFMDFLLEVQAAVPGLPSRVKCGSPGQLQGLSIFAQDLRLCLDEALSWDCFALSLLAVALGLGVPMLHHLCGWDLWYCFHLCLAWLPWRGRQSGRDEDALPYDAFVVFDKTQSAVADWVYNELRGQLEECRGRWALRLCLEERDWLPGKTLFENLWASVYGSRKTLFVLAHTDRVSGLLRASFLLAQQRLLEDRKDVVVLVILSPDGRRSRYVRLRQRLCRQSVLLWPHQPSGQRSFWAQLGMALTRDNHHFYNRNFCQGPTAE
Excerpt: A stable HEK293-Blue-hTLR-9 cell line was purchased from InvivoGen (Cat.#: hkb-htlr9, San Diego, California, USA). These cells were originally designed for studying the stimulation of human TLR9 by monitoring the activation of NF-κB. A SEAP (secreted embryonic alkaline phosphatase) reporter gene was placed under the control of the IFN-β minimal promoter fused to five NF-κB and AP-1-binding sites. The SEAP was induced by activating NF-κB and AP-1 via stimulating HEK-Blue hTLR9 cells with TLR9 ligands. Therefore the reporter expression was declined by TLR9 antagonist under the stimulation of a ligand, such as ODN2006 (Cat.#: tlrl-2006-1, Invivogen, San Diego, California, USA), for incubation of 20 hrs. The cell culture supernatant SEAP reporter activity was determined using QUANTI-Blue™ kit (Cat.#: rep-qb1, Invivogen, San Diego, California, USA) at a wavelength of 640 nm, a detection medium that turns purple or blue in the presence of alkaline phosphatase.
HEK293-Blue-hTLR9 cells were incubated at a density of 250,000~450,000 cells/mL in a volume of 170 µL in a 96-well plate in Dulbecco’s Modified Eagle’s medium (DMEM) containing 4.5 g/L glucose, 50 U/mL penicillin, […], […], 2 mM L-glutamine, 10% (v/v) heat-inactivated fetal bovine serum with addition of 20 µL test compound in a serial dilution in the presence of final DMSO at 1% and 10 µL of 20uM ODN2006 in above DMEM, perform incubation under 37° C. in a CO2 incubator for 20 hrs. Then 20 µL of the supernatant from each well was incubated with 180 µL Quanti-blue substrate solution at 37° C. for 2 h and the absorbance was read at 620 \~655 nm using a spectrophotometer. The signaling pathway that TLR9 activation leads to downstream NF-κB activation has been widely accepted, and therefore similar reporter assay was modified for evaluating TLR9 antagonist.

| Clearance of Human microsome [1] | IC50 [2] | SMILES |
| --- | --- | --- |
| 6.5 mL/min/kg | 700 nM | CCc1nc(N2CCN(Cc3cnc(N4CC5(CNCCO5)C4)nc3)CC2)ccc1-c1cc(C)c(=O)n(C)c1 [Example 1, 5-[2-ethyl-6-[4-[[2-(5-oxa-2,8-diazaspiro[3.5]nonan-2-yl)pyrimidin-5-yl]methyl]piperazin-1-yl]-3-pyridyl]-1,3-dimethyl-pyridin-2-one] |
| 12.0 mL/min/kg | 212 nM | CCc1nc(N2CCN(Cc3ccc(N4CC5(CNCCO5)C4)nc3)CC2)ccc1-c1cc(C)c(=O)n(C)c1 [Example 2, 5-[2-ethyl-6-[4-[[6-(5-oxa-2,8-diazaspiro[3.5]nonan-2-yl)-3 pyridyl]methyl]piperazin-1-yl]-3-pyridyl]-1,3-dimethyl-pyridin-2-one] |
| 6.1 mL/min/kg | 621 nM | CCc1nc(N2CCN(Cc3cnc(N4CC(C)(N)C4)nc3)CC2)ccc1-c1cc(C)c(=O)n(C)c1 [Example 3, 5-[6-[4-[[2-(3-amino-3-methyl-azetidin-1-yl)pyrimidin-5-yl]methyl]piperazin-1-yl]-2-ethyl-3-pyridyl]-1,3-dimethyl-pyridin-2-one] |
| – | 318 nM | CCc1nc(N2CCN(Cc3cnc(N4CCOC[C@@H](N)C4)nc3)CC2)ccc1-c1cc(C)c(=O)n(C)c1 [Example 4, 5-[6-[4-[[2-[(6S)-6-amino-1,4-oxazepan-4-yl]pyrimidin-5-yl]methyl]piperazin-1-yl]-2-ethyl-3-pyridyl]-1,3-dimethyl-pyridin-2-one] |
| – | 54 nM | CCc1nc(N2CCN(Cc3ccc(N4CCNCC4)cc3)CC2)ccc1-c1cc(C)c(=O)n(C)c1 [Example 5, 5-[2-ethyl-6-[4-[(4-piperazin-1-ylphenyl)methyl]piperazin-1-yl]-3-pyridyl]-1,3-dimethyl-pyridin-2-one] |
| – | 198 nM | Cc1cc(-c2ccc(N3CCN(Cc4cnc(N5CC6(CNCCO6)C5)nc4)CC3)nc2C(C)C)cn(C)c1=O [Example 6, 5-[2-isopropyl-6-[4-[[2-(5-oxa-2,8-diazaspiro[3.5]nonan-2-yl)pyrimidin-5-yl]methyl]piperazin-1-yl]-3-pyridyl]-1,3-dimethyl-pyridin-2-one] |
| – | 139 nM | Cc1cc(-c2ccc(N3CCN(Cc4cnc(N5CC(C)(N)C5)nc4)CC3)nc2C(C)C)cn(C)c1=O [Example 10, 5-[6-[4-[[2-(3-amino-3-methyl-azetidin-1-yl)pyrimidin-5-yl]methyl]piperazin-1-yl]-2-isopropyl-3-pyridyl]-1,3-dimethyl-pyridin-2-one] |
| – | 136 nM | Cc1cc(-c2ccc(N3CCN(Cc4ccc(N5CCNCC5)nc4)CC3)nc2C(C)C)cn(C)c1=O [Example 11, 5-[2-isopropyl-6-[4-[(6-piperazin-1-yl-3-pyridyl)methyl]piperazin-1-yl]-3-pyridyl]-1,3-dimethyl-pyridin-2-one] |
| – | 111 nM | Cc1cc(-c2ccc(N3CCN(Cc4ccc(N5CCNCC5)cc4)CC3)nc2C(C)C)cn(C)c1=O [Example 13, 5-[2-isopropyl-6-[4-[(4-piperazin-1-ylphenyl)methyl]piperazin-1-yl]-3-pyridyl]-1,3-dimethyl-pyridin-2-one] |
| – | 324 nM | Cc1cc(-c2ccc(N3CCN4CCN(c5ccc(N6CCNCC6)nc5)CC4C3)nc2C(C)C)cn(C)c1=O (centres unmarked) [Example 16, 5-[2-isopropyl-6-[8-(6-piperazin-1-yl-3-pyridyl)-3,4,6,7,9,9a-hexahydro-1H-pyrazino[1,2-a]pyrazin-2-yl]-3-pyridyl]-1,3-dimethyl-pyridin-2-one] |
| – | 833 nM | CCc1nc(N2CCN3CCN(c4cnc(N5CC6(CNCCO6)C5)nc4)CC3C2)ccc1-c1cc(C)c(=O)n(C)c1 (centres unmarked) [Example 19, 5-[2-ethyl-6-[2-[2-(5-oxa-2,8-diazaspiro[3.5]nonan-2-yl)pyrimidin-5-yl]-3,4,6,7,9,9a-hexahydro-1H-pyrazino[1,2-a]pyrazin-8-yl]-3-pyridyl]-1,3-dimethyl-pyridin-2-one] |
